# Measured values published in US7504538B2, “Amide or thioamide derivatives and their use in the treatment of pain” (Cara Therapeutics, Inc., priority 2003, dated 2009).
# pKi: −log10 of the molar value.
# Legend:
# hCB2-R = target: T1, hCB2-R (Homo sapiens, UniProt P34972); experiment: CB2 ligand binding assay ([3H]-CP55940 displacement, CHO-K1 membranes); settings: 0.3-0.5 nM [3H]-CP55940, CB2 membranes, 2 h at 30° C.; read-out: Binding constants (Ki) to hCB2-R
# T1 construct: expressed in transfected cells; membranes
# T1 sequence (P34972 whole entry): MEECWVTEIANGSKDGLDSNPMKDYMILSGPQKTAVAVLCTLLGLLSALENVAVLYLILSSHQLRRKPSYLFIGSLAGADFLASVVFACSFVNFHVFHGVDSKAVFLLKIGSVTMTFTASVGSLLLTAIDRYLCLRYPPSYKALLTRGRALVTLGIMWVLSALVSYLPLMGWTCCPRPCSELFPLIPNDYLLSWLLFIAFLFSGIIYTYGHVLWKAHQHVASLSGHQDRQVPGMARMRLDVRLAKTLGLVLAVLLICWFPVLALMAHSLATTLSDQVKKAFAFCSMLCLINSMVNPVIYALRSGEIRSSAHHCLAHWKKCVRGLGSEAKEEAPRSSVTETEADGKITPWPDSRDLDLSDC
# Excerpt: (§1) The biological assays used were essentially set up as described in Munro, S., Thomas, K. L., Abu-Shaar, M. in “Molecular characterisation of a peripheral receptor for cannabinoids” Nature 365:61-65 (1993) and Kim, S. H. and Chung, J. M. in “An experimental model for peripheral neuropathy produced by segmental spinal nerve ligation in the rat” Pain 50:355-363 (1992).
# Monoclonal HEK cell lines with stable expression of the human CB1 receptor and CHO-K1 cell lines with stable expression of hCB2-R were established. The CB binding assays were performed with membranes prepared from these cell lines. The CB2 ligand binding mixture contains 0.3-0.5 nM [^3H]-CP55940, 7 μg of CB2 membranes and the test compounds in a concentration range of from 1.0×10^−4 to 1.0×10^−12 M. The assay buffer comprises 50 mM Tris-HCl (pH 7.4), 5 MM MgCl2, 2.5 mM EDTA and 5 mg/ml fatty acid-free bovine serum albumin. The binding mixtures are incubated for 2 h at 30° C. and terminated by rapid filtration (Brandel 96 well cell harvester) over 934AH filters (Whatman) followed by 6 washes with ice-cold binding buffer. The filters are dried and [^3H]-CP55940 bound radioactivity is determined by liquid scintillation counting. Non-specific binding is determined in the presence of 10 μM CP55940. The binding data is analysed with the program GraphPad Prism (provided by GraphPad Software, San Diego, Calif., USA).
# rats [1] = experiment: Formalin flinch test (inflammatory pain); type: in vivo; settings: rat; for A50 Formalin Phase II: inflammatory phase (10-60 min); for A50 Formalin Phase I: tonic phase (first 10 min)
# Excerpt: as §1
# (§2) Inflammatory (Formalin flinch test) and chronic pain (L5/L6 nerve ligation injury) models were used as assays in both rats and mice.
# Animals are habituated to the their local environment for about 30 min prior to testing. The formalin test is carried out in a 30×30×30 cm chamber with the front and bottom of the chambers made of clear plexiglass. Mirrors are placed at a 45° angle under the chambers in order to have an un-obstructive view of the paws. Animals are restrained manually and 2% formalin (aq) is injected subcutaneously into the planar surface of the left paw with a 30 gauge needle. The numbers of paw flinches are then recorded in 5 min intervals from the time of injection for a 60 min period. Elevations of the paw, licking and biting of the injected paw were counted as “flinches”. The tonic or “first phase” of the nociceptive response peaked at 5 min after formalin injection and the inflammatory or “second phase” peaked at 30 min after formalin injection. The number of flinches in the first 10 min were representative of the tonic phase and the number of flinches from 10 min until 60 min were representative of the inflammatory phase. Antinociception for both phase I and phase II was calculated as follows: % antinociception=100×(# of flinches in control animal−# of flinches in drug treated animal)/(# of flinches in control animal)
# Potency (A50) is calculated from the full dose response curve for both phase I and phase II.
# rats [2] = experiment: L5/L6 nerve ligation injury, tactile allodynia (von Frey); type: in vivo; settings: rat
# Excerpt: as §1, §2
# Nerve ligation injury was performed according to the method described previously (Kim and Chung). This methodology produces signs of tactile allodynia and thermal hyperalgesia. Rats were anesthetized with halothane and the L5 and L6 spinal nerves were exposed, carefully isolated, and tightly ligated with 4-0 silk suture distal to the dorsal root ganglia (DRG). After ensuring homeostatic stability the wounds were sutured, and the animals were allowed to recover in individual cages. Sham-operated rats were prepared in an identical fashion except that the L5 and L6 spinal nerves were not ligated. Compound 17 was tested in rats after L5/L6 nerve ligation. […]
# In the evaluation of the tactile allodynia, the paw withdrawal threshold was determined in response to probing with calibrated von Frey filaments. […] The 50% paw withdrawal threshold was determined by the nonparametric method. […]
# rats [3] = experiment: L5/L6 nerve ligation injury, thermal hyperalgesia; type: in vivo; settings: rat
# Excerpt: as §1, §2
# Nerve ligation injury was performed according to the method described previously (Kim and Chung). This methodology produces signs of tactile allodynia and thermal hyperalgesia. Rats were anesthetized with halothane and the L5 and L6 spinal nerves were exposed, carefully isolated, and tightly ligated with 4-0 silk suture distal to the dorsal root ganglia (DRG). After ensuring homeostatic stability the wounds were sutured, and the animals were allowed to recover in individual cages. Sham-operated rats were prepared in an identical fashion except that the L5 and L6 spinal nerves were not ligated. Compound 17 was tested in rats after L5/L6 nerve ligation. Compound administration was directly into the hind paw (i.paw) or into the peritoneal cavity (i.p.).
SMILES,pKi (hCB2-R),further results
"O=C(CCCN(CCCC1CCCCC1)C(=O)Nc1ccccc1)NCc1ccc(Cl)cc1 [Compound 6, N-(4-chlorobenzyl)-4-[1-(3-cyclohexylpropyl)-3-phenyl-ureido]butyramide]",5.66,–
"NC(=O)CCCN(CCc1ccc2ccccc2c1)C(=O)Nc1ccccc1 [Compound 11, 4-[1-(2-naphthalen-2-yl-ethyl)-3-phenylureido]butyr-amide]",6.11,–
"NC(=O)CCCN(CCCCCc1ccccc1)C(=O)Nc1ccccc1 [Compound 16, 4-[3-phenyl-1-(5-phenylpentyl)ureido]butyramide]",6.89,–
"NC(=O)CCCN(CCC1CCCCC1)C(=O)Nc1ccccc1 [Compound 12, 4-[1-(2-cyclohexylethyl)-3-phenylureido]butyramide]",6.39,–
"NC(=O)CCCN(CCCC1CCCCC1)C(=O)Nc1ccccc1 [Compound 17, 4-[1-(3-cyclohexylpropyl)-3-phenylureido]butyramide]",6.96,"A50 Formalin Phase II (rats [1]; i. paw): 28 mg/paw; A50 Formalin Phase I (rats [1]; i. paw): <10 mg/paw; A50 Formalin Phase II (rats [1]; i.p.): 0.01 mg/kg; A50 Formalin Phase I (rats [1]; i.p.): <0.01 mg/kg; antiallodynic effect (rats [2]; L5/L6 nerve ligation, 100 μg (in 50 μl) into the paw): 90%; A50 L5/L6 anti-allodynia (rats [2]; i. paw): <30 mg/paw; antihyperalgesic response to the thermal testing (rats [3]; L5/L6 spinal nerve ligation, 30 μg (in 50 μl) into the paw): 100%; A50 L5/L6 anti-hyperalgesia (rats [3]; i. paw): <30 mg/paw"
"NC(=O)CCCN(CCCC1CCCCC1)C(=O)Nc1ccc2ccccc2c1 [Compound 10, 4-[1-(3-cyclohexylpropyl)-3-naphthalen-2-yl-ureido]-butyramide]",6.00,–
"NC(=O)[C@@H]1CCCC[C@H]1N(CCCC1CCCCC1)C(=O)Nc1ccccc1 (relative stereo) [Compound 7, trans-2-[1-(3-cyclohexylpropyl)-3-phenylureido]cyclo-hexanecarboxamide]",5.82,–
"C[C@@H](C(=O)N(CCCC(N)=O)CCCC1CCCCC1)c1ccccc1 [Compound 1, (R)-4-[(3-cyclohexylpropyl)-(2-phenylpropionyl)amino]-butyramide]",5.54,–
"NC(=O)CCCN(CCCC1CCCC1)C(=O)Nc1ccccc1 [Compound 15, 4-[1-(3-cyclopentylpropyl)-3-phenylureido]butyr-amide]",6.68,–
"NC(=O)CCCCCCCN(CCCC1CCCCC1)C(=O)Cc1ccc2ccccc2c1 [Compound 9, 8-[(3-cyclohexylpropyl)-(2-naphthalen-2-yl-acetyl)amino]-octanamide]",4.82,–
"NC(=O)CCCN(CCCCCCc1ccccc1)C(=O)Nc1ccccc1 [Compound 2, 4-[3-phenyl-1-(6-phenylhexyl)ureido]butyramide]",6.35,–
"CC(C)c1ccc(CN(CCCC(N)=O)C(=O)Nc2ccccc2)cc1 [Compound 4, 4-[1-(4-isopropylbenzyl)-3-phenylureido]butyramide]",6.11,–
"CCCCc1ccc(CN(CCCC(N)=O)C(=O)Nc2ccccc2)cc1 [Compound 3, 4-[1-(4-butylbenzyl)-3-phenylureido]butyramide]",6.92,–
"NC(=O)CCCN(CCc1ccccc1)C(=O)Nc1ccccc1 [Compound 13, 4-(1-phenethyl-3-phenylureido)butyramide]",6.35,–
"NC(=O)CCCN(CCCC1CCCCC1)C(=O)Cc1ccc2ccccc2c1 [Compound 8, 4-[(3-cyclohexylpropyl)-(2-naphthalen-2-yl-acetyl)amino]-butyramide]",5.57,–
"Cc1c(C(=O)c2cccc3ccccc23)c2cccc3c2n1[C@H](CN1CCOCC1)CO3 [WIN-55, 212-2, reference compound]",–,A50 Formalin Phase II (rats [1]; i. paw): 25 mg/paw; A50 Formalin Phase I (rats [1]; i. paw): 12 mg/paw
"CC(C)CCCN(CCCC(N)=O)C(=O)Nc1ccccc1 [Compound 5, 4-[1-(4-methylpentyl)-3-phenylureido]butyramide]",5.96,–
"NC(=O)CCCN(Cc1ccccc1)C(=O)Nc1ccccc1 [Compound 14, 4-(1-benzyl-3-phenylureido)butyramide]",6.08,–
